Assay results from US20260285850A1, “SUBSTITUTED OXAZOLIDINONES AND IMIDAZOLINONES AS HERBICIDES” (FMC CORPORATION, priority 2023, published 2026).

How the values were obtained:
Type in all cases: in vivo
[1] = tested on: barnyardgrass (Echinochloa crus-galli); assay: Test A preemergence soil spray, visual injury rating 0-100; conditions: 10 days, 0 = no effect, 100 = complete control
Summary of the method: (§1)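 Visual injury, scored 0-100 (100 = complete control) against untreated plants, 10 days after greenhouse treatment. Test chemicals in surfactant-containing non-phytotoxic solvent were applied in loam soil and sand, as a preemergence soil spray on seeds or postemergence to plants at the one- to two-leaf stage.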

[2] = tested on: blackgrass (Alopecurus myosuroides); assay: as above; conditions: 10 days, 0 = no effect, 100 = complete control
Summary of the method: as §1

corn (Zea mays) [3] = assay: as above; conditions: 10 days, 0 = no effect, 100 = complete control
Summary of the method: as §1

[4] = tested on: green foxtail (Setaria viridis); assay: as above; conditions: 10 days, 0 = no effect, 100 = complete control
Summary of the method: as §1

kochia (Bassia scoparia) [5] = assay: as above; conditions: 10 days, 0 = no effect, 100 = complete control
Summary of the method: as §1

[6] = tested on: oat, wild (wild oat, Avena fatua); assay: as above; conditions: 10 days, 0 = no effect, 100 = complete control
Summary of the method: as §1

[7] = tested on: palmer (palmer amaranth, palmer pigweed, Amaranthus palmeri); assay: as above; conditions: 10 days, 0 = no effect, 100 = complete control
Summary of the method: as §1

[8] = tested on: ragweed (common ragweed, Ambrosia artemisiifolia); assay: as above; conditions: 10 days, 0 = no effect, 100 = complete control
Summary of the method: as §1

[9] = tested on: ryegrass, Italian (italian ryegrass, Lolium multiflorum); assay: as above; conditions: 10 days, 0 = no effect, 100 = complete control
Summary of the method: as §1

soybean (Glycine max) [10] = assay: as above; conditions: 10 days, 0 = no effect, 100 = complete control
Summary of the method: as §1

[11] = tested on: wheat (Triticum aestivum); assay: as above; conditions: 10 days, 0 = no effect, 100 = complete control
Summary of the method: as §1

[12] = tested on: barnyardgrass (Echinochloa crus-galli); assay: Test A postemergence application, visual injury rating 0-100; conditions: 10 days
Summary of the method: as §1

[13] = tested on: blackgrass (Alopecurus myosuroides); assay: as above; conditions: 10 days
Summary of the method: as §1

corn (Zea mays) [14] = assay: as above; conditions: 10 days
Summary of the method: as §1

[15] = tested on: galium (catchweed bedstraw, Galium aparine); assay: as above; conditions: 10 days
Summary of the method: as §1

[16] = tested on: green foxtail (Setaria viridis); assay: as above; conditions: 10 days
Summary of the method: as §1

[17] = tested on: horseweed (Erigeron canadensis); assay: as above; conditions: 10 days
Summary of the method: as §1

kochia (Bassia scoparia) [18] = assay: as above; conditions: 10 days
Summary of the method: as §1

[19] = tested on: oat, wild (wild oat, Avena fatua); assay: as above; conditions: 10 days
Summary of the method: as §1

[20] = tested on: palmer (palmer amaranth, palmer pigweed, Amaranthus palmeri); assay: as above; conditions: 10 days
Summary of the method: as §1

[21] = tested on: ragweed (common ragweed, Ambrosia artemisiifolia); assay: as above; conditions: 10 days
Summary of the method: as §1

[22] = tested on: ryegrass, Italian (italian ryegrass, Lolium multiflorum); assay: as above; conditions: 10 days
Summary of the method: as §1

soybean (Glycine max) [23] = assay: as above; conditions: 10 days
Summary of the method: as §1

[24] = tested on: wheat (Triticum aestivum); assay: as above; conditions: 10 days
Summary of the method: as §1

[25] = tested on: barnyardgrass (Echinochloa crusgalli); assay: Test B flooded paddy test, visual plant response rating 0-100; conditions: 250 g ai/ha, Flood, applied to paddy water, evaluated after 13 days
Summary of the method: (§2)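 Compounds applied to standing paddy water (3 cm above soil, maintained for the test duration) on 2-leaf-stage plants; visual rating vs controls at 13 days, greenhouse.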

[26] = tested on: ducksalad (Heteranthera limosa); assay: as above; conditions: 250 g ai/ha, Flood, applied to paddy water, evaluated after 13 days
Summary of the method: as §2

rice (Oryza sativa) = assay: as above; conditions: 250 g ai/ha, Flood, applied to paddy water, evaluated after 13 days
Summary of the method: as §2

[27] = tested on: sedge, umbrella (small-flower umbrella sedge, Cyperus difformis); assay: as above; conditions: 250 g ai/ha, Flood, applied to paddy water, evaluated after 13 days
Summary of the method: as §2

[28] = 31 g ai/ha, postemergence, 0 = no effect, 100 = complete control
[29] = Postemergence, 125 g ai/ha, 0 is no effect, 100 is complete control

Compound: CC1(C(=O)NC2C=CC(C(=O)O)C2)CN(c2cc(Cl)cc(Cl)c2)C(=O)O1 (stereo not shown) [Compound 62]
- Barnyardgrass plant response rating (0-100) ([1]; 31 g ai/ha): 80
- Barnyardgrass plant response rating (0 to 100 scale) ([1]; 125 g ai/ha): 100
- Blackgrass plant response rating (0-100) ([2]; 31 g ai/ha): 30
- Blackgrass plant response rating (0 to 100 scale) ([2]; 125 g ai/ha): 70
- Corn plant response rating (0-100) (corn (Zea mays) [3]; 31 g ai/ha): 30
- Corn plant response rating (0 to 100 scale) (corn (Zea mays) [3]; 125 g ai/ha): 80
- Foxtail, Green plant response rating (0-100) ([4]; 31 g ai/ha): 80
- Foxtail, Green plant response rating (0 to 100 scale) ([4]; 125 g ai/ha): 90
- Kochia plant response rating (0-100) (kochia (Bassia scoparia) [5]; 31 g ai/ha): 30
- Kochia plant response rating (0 to 100 scale) (kochia (Bassia scoparia) [5]; 125 g ai/ha): 90
- Oat, Wild plant response rating (0-100) ([6]; 31 g ai/ha): 40
- Oat, Wild plant response rating (0 to 100 scale) ([6]; 125 g ai/ha): 70
- Amaranth, Palmer plant response rating (0-100) ([7]; 31 g ai/ha): 90
- Amaranth, Palmer plant response rating (0 to 100 scale) ([7]; 125 g ai/ha): 100
- Ragweed plant response rating (0-100) ([8]; 31 g ai/ha): 30
- Ragweed plant response rating (0 to 100 scale) ([8]; 125 g ai/ha): 20
- Ryegrass, Italian plant response rating (0-100) ([9]; 31 g ai/ha): 60
- Ryegrass, Italian plant response rating (0 to 100 scale) ([9]; 125 g ai/ha): 80
- Soybean plant response rating (0-100) (soybean (Glycine max) [10]; 31 g ai/ha): 0
- Soybean plant response rating (0 to 100 scale) (soybean (Glycine max) [10]; 125 g ai/ha): 60
- Wheat plant response rating (0-100) ([11]; 31 g ai/ha): 80
- Wheat plant response rating (0 to 100 scale) ([11]; 125 g ai/ha): 90
- Barnyardgrass plant response rating (0-100) [12, 28]: 100
- Barnyardgrass plant response rating (0 to 100 scale) [12, 29]: 100
- Blackgrass plant response rating (0-100) [13, 28]: 90
- Blackgrass plant response rating (0 to 100 scale) [13, 29]: 100
- Corn plant response rating (0-100) (corn (Zea mays) [14]; [28]): 100
- Corn plant response rating (0 to 100 scale) (corn (Zea mays) [14]; [29]): 100
- Galium plant response rating (0-100) [15, 28]: 80
- Galium plant response rating (0 to 100 scale) [15, 29]: 80
- Foxtail, Green plant response rating (0-100) [16, 28]: 90
- Foxtail, Green plant response rating (0 to 100 scale) [16, 29]: 90
- Horseweed plant response rating (0-100) [17, 28]: 50
- Horseweed plant response rating (0 to 100 scale) [17, 29]: 70
- Kochia plant response rating (0-100) (kochia (Bassia scoparia) [18]; [28]): 70
- Kochia plant response rating (0 to 100 scale) (kochia (Bassia scoparia) [18]; [29]): 80
- Oat, Wild plant response rating (0-100) [19, 28]: 90
- Oat, Wild plant response rating (0 to 100 scale) [19, 29]: 90
- Amaranth, Palmer plant response rating (0-100) [20, 28]: 90
- Amaranth, Palmer / Pigweed, Palmer plant response rating (0 to 100 scale) [20, 29]: 90
- Ragweed plant response rating (0-100) [21, 28]: 40
- Ragweed plant response rating (0 to 100 scale) [21, 29]: 90
- Ryegrass, Italian plant response rating (0-100) [22, 28]: 90
- Ryegrass, Italian plant response rating (0 to 100 scale) [22, 29]: 100
- Soybean plant response rating (0-100) (soybean (Glycine max) [23]; [28]): 80
- Soybean plant response rating (0 to 100 scale) (soybean (Glycine max) [23]; [29]): 90
- Wheat plant response rating (0-100) [24, 28]: 90
- Wheat plant response rating (0 to 100 scale) [24, 29]: 90
- Plant response rating, Barnyardgrass (0 to 100 scale, 0 is no effect and 100 is complete control) [25]: 50
- Plant response rating, Ducksalad (0 to 100 scale, 0 is no effect and 100 is complete control) [26]: 90
- Plant response rating, Rice (0 to 100 scale, 0 is no effect and 100 is complete control) (rice (Oryza sativa)): 15
- Plant response rating, Sedge, Umbrella (0 to 100 scale, 0 is no effect and 100 is complete control) [27]: 98
